What all share (assay): Growth of heme resistant mutant in CeHR medium
Format in all cases: in vivo, Caenorhabditis elegans

For experiment [1], the system named is C. elegans mutant IH1068 n. Details: key to Growth 1.6 μM hemin / Growth 0.5 μM GaPP: + = wild type equivalent In growth; ND: No growth. Here is the method:
(§1) To further increase the stringency of our genetic screen we split the contents from each 800 μM hemin selection flasks into two flasks containing either 800 μM or 1000 μM hemin. This allowed us to use another tier of positive selection to identify mutants with greater resistance to heme toxicity. Mutants from each flask were isolated and treated as a separate entity by giving an identification number based on the Genetic Nomenclature Guidelines used for C. elegans (http://biosci.umn.edu/CGC/Nomenclature/nomenguid.htm). To eliminate EMS-induced spurious mutations that could result in false positive, the mutants were outcrossed to wild-type N2 males. After five outcrosses, which replaces ˜97% of the mutant genome, mutants that bred true were selected for further analysis. Using this procedure, we isolated 13 individual mutants that were resistant to heme toxicity. These mutants were further characterized by analyzing Mendelian segregation ratios, X-linkage, phenotype penetrance, generation times, brood size, and their ability to grow under low hemin. […] This observation was surprising because we anticipated that high heme-resistant mutants will grow poorly under low heme. Based on the mutant's growth profile at low and high heme levels, we broadly categorized them into three phenotypic classes: class A, class B and class C (FIG. 13). These “phenoclusters” have the following growth phenotype: (a) three mutants IH728, IH938, IH731 show with robust growth under low and high (≧800 μM heme (FIG. 13B), (b) one mutant IH828 show exceptional growth under low heme, moderate growth at ≦800 μM heme, and no growth at 1000 μM hemin (FIG. 13C), and (c) six mutants IH921, IH11058, IH1068n, IH1068d, IH1048, and IH718 that show moderate growth under high heme (≦800 μM), but normal growth under low heme (FIG. 13D). By classifying these mutants into phenoclusters, we can focus our efforts on the phenotypic datasets to map the molecular networks and pathways involved in heme dependent processes. For instance, mutants in a cluster may have mutations within the same gene or in multiple genes but within the same pathway.
(§2) Worm Culture and Growth Assays. Free-living worms were cultured in CeHR axenic liquid medium (Dr. Eric Clegg, Personal Communication). […] CeHR medium was modified (henceforth called mCeHR) to eliminate all sources of exogenously added heme; basal growth medium comprised 20 μM hemin chloride (Frontier Scientific, Logan, Utah) and 150 μM of ferrous ammonium sulfate (Sigma Chemicals). Worm strains were grown in mCeHR medium under aerobic conditions in tissue culture flasks at 20° C. ˜3.7×10^6 worms were routinely obtained after 3.5 to 4 days in a T75 flask with 30 ml basal medium from an initial inoculum of −1.5×10^5 worms. For initial culturing of worms in axenic media, three generations of worms were sequentially bleached (1.1% bleach/0.55 M NaOH) to eliminate any contaminating bacterial carryover from agar plates. In all dose-response experiments, worms were growth synchronized by treating the gravid hermaphrodite worms with bleach to dissolve adult worms. The eggs, resistant to bleach, were liberated from the carcasses and extensively washed with M9 buffer followed by overnight hatching in M9 buffer to synchronize growth. By harvesting at appropriate time intervals, synchronous larval stages and adult staged worms were collected for experimental manipulations. Identical numbers of synchronized L1 larvae were inoculated into media with different heme concentrations in 12- or 24-well culture plates. Worm growth was monitored each day and an aliquot was obtained for counting by microscopy usually at days 3, 6, and 9. The worms in each well were counted twice and each growth condition was analyzed in triplicate. P values for statistical significance were calculated utilizing a one-way ANOVA with Student-Newman-Keuls multiple comparison test using GraphPad Instat version 3.01. […]

The test system of a further experiment is C. elegans mutant IH1048. The arrangement: key to Growth 1.6 μM hemin / Growth 0.5 μM GaPP: + = wild type equivalent In growth; ND: No growth. Here is the method: as §1, §2
Experiment [2] relates to C. elegans mutant IH1068 d. The arrangement: key to Growth 1.6 μM hemin / Growth 0.5 μM GaPP: + = wild type equivalent In growth; ND: No growth. Here is the method: as §1, §2
For another experiment, the system named is C. elegans mutant IH731. Here is the method: as §1, §2
Another experiment deals with C. elegans mutant IH828. On the procedure: as §1, §2
A further experiment relates to C. elegans mutant IH728. Here is the method: as §1, §2
For another experiment, the system named is C. elegans mutant IH938. On the procedure: as §1, §2
Where [3] appears, read: 20 μM hemin, average in 24 well plates.

“Also recorded” adds a separate entry of the source.

As for hemin chloride, the “Growth 1.6 μM hemin” value (in experiment [1]; in the experiment on C. elegans mutant IH1048; in experiment [2]) was “+” throughout. Besides, the “Generation time (Days) 20 μM” value is 4 days in experiment [1] (20 μM hemin); 3.5 days in the experiment on C. elegans mutant IH731 (20 μM hemin); 3.5 days with C. elegans mutant IH828 (IH828, 20 μM hemin); 3.5 days in the experiment on C. elegans mutant IH728 (20 μM hemin); 3.5 days in the experiment on C. elegans mutant IH938 (20 μM hemin). In addition, the “Generation time (Days) 800 μM” value in the experiment with C. elegans mutant IH1048 (800 μM hemin) is 4 days; in experiment [2] (800 μM hemin), 4 days; with C. elegans mutant IH731 (800 μM hemin), 4 days; with C. elegans mutant IH828 (IH828, 800 μM hemin), 4 days; with C. elegans mutant IH728 (800 μM hemin), 4 days; with C. elegans mutant IH938 (800 μM hemin), 4 days. Moreover, the “brood size 20 μM” value in experiment [2] (setting [3]) worked out at 12.4; in the experiment on C. elegans mutant IH731 (setting [3]), 53; in the experiment with C. elegans mutant IH828 (IH828, 20 μM hemin, average in 24 well plates), 67; with C. elegans mutant IH728 (setting [3]), 53; in the experiment on C. elegans mutant IH938 (setting [3]) it was 72. The “resistance of IH828” value with C. elegans mutant IH828 (800 μM hemin) is “moderately resistant”. Moreover, the “growth of IH828” value in the experiment with C. elegans mutant IH828 (1000 μM hemin) is recorded as “no growth; also recorded: does not grow”.

Source of the values: patent US20060206946A1, “Method of disrupting heme transport in nematodes and of modelling and evaluating eukaryotic heme transport” (priority 2005, published 2006).
